{"source": "patent US20230131899A1", "about": "“INHIBITORS OF MICROBIALLY INDUCED AMYLOID” (Axial Therapeutics, Inc., priority 2020, published 2023)", "key": {"[1]": {"tested_on": "CsgA gene expression (csgBAC promoter-GFP reporter) in E. coli UTI89", "assay": "In vitro live cell fluorescent reporter assay of CsgA transcription (Reporter Assay)", "format": "cell-based", "conditions": "Escherichia coli", "in_short": "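Chromosomal single-copy csgBAC promoter–GFP reporter in E. coli UTI89, started at OD600 0.003 in YESCA broth with compound (0.14–100 μM, 1% DMSO), 20 h at 27 °C. GFP (ex 485/em 525 nm) background-subtracted and normalized to vehicle; IC50 and X[50] from curve fits. OD600 tracked growth effects.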"}, "[2]": {"molecular_target": "T1, human α-synuclein (Homo sapiens, UniProt P37840)", "T1 construct": "the full-length gene for untagged human α-synuclein was inserted; made in house; host or cells: E. coli BL21(DE3), plasmid derived from pT7 or pET11a", "assay": "Cell-free Thioflavin T assay of α-synuclein aggregation (αSyn ThT Assay)", "format": "biochemical", "conditions": "αSyn 50 μM", "procedure": "To assess the effects of compounds on aggregation of α-synuclein, a cell-free assay was performed using purified α-synuclein and Thioflavin T. In the assay, human α-synuclein was expressed in E. coli BL21(DE3) from a plasmid derived from pT7 or pET11a into which the full-length gene for untagged human α-synuclein was inserted. Cells were induced at OD600 0.6 with 0.8 mM IPTG for 4 hours, harvested by centrifugation and suspended in a volume of lysis buffer (10 mM Tris, pH 8.0, 1 mM EDTA, and 1 mM PMSF) equivalent to one-tenth the volume of culture and lysed by boiling for 20 minutes. Cell debris was pelleted by centrifugation, clarified lysate was treated with 10% streptomycin sulfate at 136 μL/mL followed by glacial acetic acid at 228 μL/mL, lysate was centrifuged, supernatant was transferred to a fresh tube and protein was precipitated via addition of an equal volume of saturated (100%) ammonium sulfate and incubated at 4° C. on a rocking shaker for 1 hour. The protein was pelleted via centrifugation and washed with an equal volume of 100 mM ammonium acetate in chilled ethanol, pelleted via centrifugation, washed twice with chilled ethanol, dried overnight, resuspended in 50 mM potassium phosphate buffer pH 7.3 or 10 mM Tris pH 7.4, and passed through a 50 kDa cut-off column. Immediately prior to use, the purified α-synuclein was filtered with a 0.2 μm nylon filter. The assay was conducted in 96-well black microplates with a single 1-2 mm glass bead in each well, 20-40 μM ThioflavinT, 1% DMSO, α-synuclein at 50 μM and compounds at 20-100 μM. Plates were sealed with sealing tape (ThermoFisher 232701), incubated at 37° C. in a Tecan Nano F200 plate reader with excitation at 438 nm using a 439 nm filter with a bandwidth of 8 nm, and emission at 495 nm with a 490 nm filter with a bandwidth of 10 nm. During the assay, plates were shaken continuously or were shaken for 999 seconds every 18 minutes. Readings were performed hourly for up to 73 hours. The effect of compounds on α-synuclein aggregation in the assay was determined with data at 36, 47, 48 or 72 hours or from the final timepoint of the assay, prior to or roughly near the time when ThT fluorescence plateaued in the vehicle control wells. The vehicle controls contained all components of the assay except compounds and represented the level of α-synuclein aggregation in the absence of an inhibitor or accelerator. Fluorescence values for each compound with α-synuclein were first adjusted by subtracting the average fluorescence of the compound in the absence of α-synuclein. These adjusted values were normalized by dividing them by the average fluorescence at the same timepoint in the vehicle control wells, and the average normalized fluorescence with the compound was expressed as a percentage of the average fluorescence observed in untreated controls. Percent inhibition of α-synuclein aggregation by a compound was determined by subtracting the percent average fluorescence with the compound relative to the average vehicle control from 100%. A higher positive percent inhibition reflects greater inhibition of α-synuclein aggregation, while a negative percent inhibition reflects potentiation of α-synuclein aggregation.\nAlternate concentrations of Thioflavin T may be used in the assay and may affect the fluorescent signal and sensitivity of the assay. Alternate concentrations of α-synuclein may be used and such alterations may affect aggregation kinetics of α-synuclein in the assay. Alternate concentrations of compounds may be tested in the assay, and dose-responses may be evaluated. Additional reagents may be added to the assay which may affect aggregation kinetics of α-synuclein depending on their concentration, including detergents such as sodium dodecyl sulfate, sodium chloride, dithiotreitol, or bovine serum albumin. Shaking may be included at alternate intervals in the assay and may affect α-synuclein aggregation kinetics. […]"}, "[3]": {"conditions": "read-out: Reporter Assay Abs IC50 (μM), median Abs IC50 in the CsgA reporter assay, N/A = maximum expression reduction is <50% of control"}, "[4]": {"conditions": "read-out: Reporter Assay Abs IC50, activity range, class symbol"}, "[5]": {"conditions": "class symbol, compounds 100 μM, read-out: αSyn ThT Assay % inhibition, activity range"}, "[6]": {"conditions": "mean percent inhibition relative to DMSO control, compounds 100 μM, read-out: αSyn ThT Assay % inhibition"}}, "note": "Where two headings read alike, the source gives them in different places.", "data": [{"smiles": "COc1cc(Cc2c(-c3cccc(C(F)(F)F)c3)c3n(c(=O)c2Cl)C(C(=O)O)CN3Cc2ccccc2)c2ccccc2c1", "note": "(stereo not shown) [Compound 234, 1-benzyl-6-chloro-7-((3-methoxynaphthalen-1-yl)methyl)-5-oxo-8-(3-(trifluoromethyl)phenyl)-1,2,3,5-tetrahydroimidazo[1,2-a]pyridine-3-carboxylic acid]", "values": [{"measurement": "IC50", "setting": "[1]; [3]", "result": 0.4, "unit": "µM"}, {"measurement": "IC50", "setting": "[1]; [4]", "result": "< 1.3", "unit": "µM"}, {"measurement": "inhibition at 100 µM", "setting": "[2]; [5]", "result": "> 60", "unit": "%"}, {"measurement": "inhibition at 100 µM", "setting": "[2]; [6]", "result": 70, "unit": "%"}]}, {"smiles": "O=C(O)C1CN(CCCCCCN2CC(C(=O)O)n3c(c(-c4cccc(C(F)(F)F)c4)c(Cc4cccc5ccccc45)cc3=O)S2(=O)=O)S(=O)(=O)c2c(-c3cccc(C(F)(F)F)c3)c(Cc3cccc4ccccc34)cc(=O)n21", "note": "(racemic) [Compound 043, 2,2′-(hexane-1,6-diyl)bis(8-(naphthalen-1-ylmethyl)-6-oxo-9-(3-(trifluoromethyl)phenyl)-3,4-dihydro-2H,6H-pyrido[1,2-e][1,2,5]thiadiazine-4-carboxylic acid 1,1-dioxide)]", "values": [{"measurement": "IC50", "setting": "[1]; read-out: Reporter Assay Abs IC50 (activity range), median Abs IC50 in the CsgA reporter assay, class symbol", "result": "< 1.3", "unit": "µM"}, {"measurement": "IC50", "setting": "[1]; [3]", "result": 0.7, "unit": "µM"}, {"measurement": "inhibition at 100 µM", "setting": "[2]; mean % inhibition of αSyn aggregation relative to DMSO control, compounds at 100 μM, read-out: αSyn ThT Assay % Inhibition", "result": 72, "unit": "%"}, {"measurement": "inhibition at 100 µM", "setting": "[2]; compounds at 100 μM, class symbol, read-out: αSyn ThT Assay % Inhibition (activity range)", "result": "> 60", "unit": "%"}]}, {"smiles": "COc1cc(Cc2cc(=O)n3c(c2-c2cccc(C(F)(F)F)c2)N(Cc2ccccc2)CC3C(=O)O)c2ccccc2c1", "note": "(stereo not shown) [Compound 233, 1-benzyl-7-((3-methoxynaphthalen-1-yl)methyl)-5-oxo-8-(3-(trifluoromethyl)phenyl)-1,2,3,5-tetrahydroimidazo[1,2-a]pyridine-3-carboxylic acid]", "values": [{"measurement": "IC50", "setting": "[1]; [3]", "result": 0.6, "unit": "µM"}, {"measurement": "IC50", "setting": "[1]; [4]", "result": "< 1.3", "unit": "µM"}, {"measurement": "inhibition at 100 µM", "setting": "[2]; [5]", "result": "31 to 60", "unit": "%"}, {"measurement": "inhibition at 100 µM", "setting": "[2]; [6]", "result": 50, "unit": "%"}]}, {"smiles": "N#Cc1ccc(CN2CC(C(=O)O)n3c2c(-c2cccc(C(F)(F)F)c2)c(Cc2cccc4ccccc24)c(Cl)c3=O)cc1", "note": "(stereo not shown) [Compound 171, 6-chloro-1-(4-cyanobenzyl)-7-(naphthalen-1-ylmethyl)-5-oxo-8-(3-(trifluoromethyl)phenyl)-1,2,3,5-tetrahydroimidazo[1,2-a]pyridine-3-carboxylic acid]", "values": [{"measurement": "IC50", "setting": "[1]; [3]", "result": 1.1, "unit": "µM"}, {"measurement": "IC50", "setting": "[1]; [4]", "result": "< 1.3", "unit": "µM"}, {"measurement": "inhibition at 100 µM", "setting": "[2]; [5]", "result": "31 to 60", "unit": "%"}, {"measurement": "inhibition at 100 µM", "setting": "[2]; [6]", "result": 32, "unit": "%"}]}, {"smiles": "O=C(O)C1CN(Cc2ccccc2)c2c(-c3cccc(C(F)(F)F)c3)c(Cc3ccc(Cl)c4ccccc34)cc(=O)n21", "note": "(stereo not shown) [Compound 232, 1-benzyl-7-((4-chloronaphthalen-1-yl)methyl)-5-oxo-8-(3-(trifluoromethyl)phenyl)-1,2,3,5-tetrahydroimidazo[1,2-a] pyridine-3-carboxylic acid]", "values": [{"measurement": "IC50", "setting": "[1]; [3]", "result": 0.7, "unit": "µM"}, {"measurement": "IC50", "setting": "[1]; [4]", "result": "< 1.3", "unit": "µM"}, {"measurement": "inhibition at 100 µM", "setting": "[2]; [5]", "result": "11 to 30", "unit": "%"}, {"measurement": "inhibition at 100 µM", "setting": "[2]; [6]", "result": 23, "unit": "%"}]}, {"smiles": "O=C(O)C1CN(CCc2cccc3ccccc23)c2c(-c3cccc(C(F)(F)F)c3)c(Cc3cccc4ccccc34)c(Cl)c(=O)n21", "note": "(stereo not shown) [Compound 238, 6-chloro-1-(2-(naphthalen-1-yl)ethyl)-7-(naphthalen-1-ylmethyl)-5-oxo-8-(3-(trifluoromethyl)phenyl)-1,2,3,5-tetrahydroimidazo[1,2-a]pyridine-3-carboxylic acid]", "values": [{"measurement": "IC50", "setting": "[1]; [3]", "result": 0.7, "unit": "µM"}, {"measurement": "IC50", "setting": "[1]; [4]", "result": "< 1.3", "unit": "µM"}, {"measurement": "inhibition at 100 µM", "setting": "[2]; [5]", "result": "> 60", "unit": "%"}, {"measurement": "inhibition at 100 µM", "setting": "[2]; [6]", "result": 94, "unit": "%"}]}, {"smiles": "N#Cc1ccccc1CN1CC(C(=O)O)n2c1c(-c1cccc(C(F)(F)F)c1)c(Cc1cccc3ccccc13)c(Cl)c2=O", "note": "(stereo not shown) [Compound 165, 6-chloro-1-(2-cyanobenzyl)-7-(naphthalen-1-ylmethyl)-5-oxo-8-(3-(trifluoromethyl)phenyl)-1,2,3,5-tetrahydroimidazo[1,2-a]pyridine-3-carboxylic acid]", "values": [{"measurement": "IC50", "setting": "[1]; [3]", "result": 0.8, "unit": "µM"}, {"measurement": "IC50", "setting": "[1]; [4]", "result": "< 1.3", "unit": "µM"}, {"measurement": "inhibition at 100 µM", "setting": "[2]; [5]", "result": "11 to 30", "unit": "%"}, {"measurement": "inhibition at 100 µM", "setting": "[2]; [6]", "result": 30, "unit": "%"}]}]}
